Results: patent publication US11690839B2, “Treatment of idiopathic pulmonary fibrosis” (TAKEDA GMBH, priority 2017, dated 2023)
Read-outs that look alike come from different tables or passages of the source.

Experiments:
[1] = test system: IPF mice model (DTR+ mice given diphtheria toxin); assay type: in vivo
[2] = test system: WI-38 human lung fibroblasts; assay: TGF-β induced mRNA expression of pro-fibrotic markers in WI-38 human lung fibroblast cell line; assay type: cell-based; conditions: WI-38 cells, various concentrations of Compound A 1 hour before TGF-β (3 ng/mL) and forskolin (1 μM), 24 hours incubation, normalized to GAPDH; FIG. 2
Protocol: 2) In Vitro Effects of PDE4 Inhibitor Compound A in […]
For gene expression assay, WI-38 human lung fibroblasts were suspended in Eagle's minimum essential medium (E-MEM, Invitrogen) containing 10% heat-inactivated fetal bovine serum (FBS) and seeded on 24 well plates as 0.5×10^5 cells/500 μL/well. Twenty-four hours after the seeding, medium was re-placed by E-MEM containing 0.5% FBS. Twenty-four hours after medium change, cells were treated with various concentration of Compound A. After 1 hour, cells were treated with TGF-β (3 ng/mL) and forskolin (1 μM). After the 24-hours incubation, total RNA was ex-tracted from cell lysate using RNeasy 96 Kit (QIAGEN 74182). cDNA was amplified using High-Capacity cDNA Reverse Transcription Kit (ABI 4368813), and target gene mRNA was measured using TaqMan PCR with predesigned primers for type 1 collagen alpha 1 chain (Hs00164004_m1, Applied Biosystems), fibronectin (Hs00365052_m1, Applied Biosystems), connective tissue growth factor (Hs01026927_g1, Applied Biosystems), plasminogen activator inhibitor-1 (Hs00167155_m1, Applied Biosystems) and GAPDH (Hs02758991_g1, Applied Biosystems) as the endogenous reference. The target gene expression levels were normalized by mRNA expression of GAPDH and the data represent the relative mRNA levels to TGF-β/forskolin-treated group.

SMILES	body weight reduction by induction of epithelial cell injury ([1]; DT day 1-14, Compound A 0.3 or 3.0 mg/kg oral once daily day 11-21, FIG. 1B)	suppression of lung hydroxyproline content (severity of lung fibrosis) ([1]; DT day 1-14, Compound A oral gavage once daily day 11-21, already starting at 0.3 mg/kg (doses 0.3 and 3.0 mg/kg), assessed day 21, FIG. 1A)	mRNA expression of fibrotic marker genes (type 1 collagen alpha 1, fibronectin, connective tissue growth factor, plasminogen activator inhibitor-1) induced by TGF-β [2]	body weight reduction by induction of epithelial cell injury ([1]; DT day 1-14, imatinib 50 mg/kg intraperitoneal once daily day 11-21, FIG. 1B)	suppression of lung hydroxyproline content (severity of lung fibrosis) ([1]; DT day 1-14, imatinib 50 mg/kg intraperitoneal once daily day 11-21, assessed day 21, FIG. 1A)
CCOc1cc2c(cc1OC)C(c1ccc(=O)n(C)c1)=N[C@@H]1CC[C@@H](O)C[C@H]21 [Compound A, 5-((2R,4aR,10bR)-9-Ethoxy-2-hydroxy-8-methoxy-1,2,3,4,4a,10b-hexahydro-phenanthridin-6-yl)-1-methyl-1H-pyridin-2-one]	blunting effect was shown	robust and significant effect on suppression of hydroxyproline content	significantly suppressed expression of fibrotic marker genes induced by TGF-β		
Cc1ccc(NC(=O)c2ccc(CN3CCN(C)CC3)cc2)cc1Nc1nccc(-c2cccnc2)n1 [Imatinib, reference compound]				not blunted	only a moderate efficacy
